The values below come from US10017507B2, “Diaza-benzofluoranthrene compounds” (HARBIN PHARMACEUTICAL GROUP CO., LTD. GENERAL …, priority 2015, dated 2018).

One data set concerns the target T1, PDE1A (Homo sapiens, UniProt P54750).
T1 construct: purchased SignalChem
Description: In vitro detection of phosphodiesterase (PDE): PDE1A enzyme activity by fluorescence polarization immunoassay. It is filed as biochemical. To be noted: human-derived enzyme, cAMP or cGMP substrate; read-out: IC50s for PDE1. Summed up:
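Human PDE1A (enzyme solution 3 pM) was preincubated 10 min at RT with compound in 10 mM Tris-HCl pH 7.5, 5 mM MgCl2, 0.01% Brij 35, 1 mM DTT, 1% DMSO, with Ca2+-calmodulin cofactor. Reaction ran 1 h at RT on […] cAMP or cGMP, then 90 min with antibody/tracer. FP at Ex/Em 620/688 was converted to AMP/GMP via standard curve to give IC50.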
In general terms: Fluorescence polarisation rises when a labelled molecule tumbles more slowly, as on binding a larger partner.

The nature of data set [1]: Comparison of pharmacokinetics in Beagle dogs. It is filed as in vivo. As to the method:
Test 2: Comparison of Pharmacokinetics in Beagle Dogs
In this study, male Beagle dogs were given the compounds of the examples and vinpocetine (as a control compound) by intravenous injection or oral administration, respectively, then the drug concentration in plasma at different time points was determined by the LC/MS/MS method, so as to investigate the pharmacokinetic characteristics of the two test drugs in Beagle dogs.
Eight healthy adult Beagle dogs with a weight of 7.0 to 10.83 kg (purchased from Beijing Marshall Biotechnology Co., Ltd.) were selected. The formulation for intravenous injection group was DMSO: PEG400: water=5:20:75. A solvent was added to the test compound which had been accurately weighed, after vortex oscillation and ultrasound, a clear solution with a final concentration of 1.0 mg/mL was obtained. The solution was filtered with a filter membrane of 0.22 μm and stored at room temperature for use. The formulation for oral administration group was PEG 400: Tween 80: H2O=40:10:50. A solvent was added to the test compound which had been accurately weighed, after vortex oscillation and ultrasound, a clear solution with a final concentration of 1.5 mg/mL was obtained. The formulations for both the intravenous injection and the oral administration were formulated on the day of administration. The intravenous dose was 1.0 mg/kg, and the oral dose was 3.0 mg/kg. The whole blood for each test compound was respectively taken at 0.083 (for intravenous injection only), 0.25, 0.5, 1, 2, 4, 6, 8 and 24 hours after administration. The whole blood was centrifuged (3000 g, 15 min, 4° C.) to obtain the plasma. The drug concentration in each plasma sample was determined by LC/MS/MS method. The data about drug concentration in plasma was processed by WinNonlin™ Version 6.3 (Pharsight, Mountain View, Calif.) software, using a non-compartmental model, and the pharmacokinetic parameters were calculated by using the linear-logarithmic trapezoidal method.

The test system of data set [2] is pentylenetetrazole-kindling model of epilepsy. Put plainly: Inhibition effect on pentylenetetrazole-kindling model of epilepsy in cynomolgus monkey. The format is in vivo. The note with it: 10 mg/kg. From the text: Test 3: Inhibition Effect on Pentylenetetrazole-Kindling Model of Epilepsy in Cynomolgus Monkey In this test, six male cynomolgus monkeys were selected, and each monkey was intragastrically administrated by nasal feeding. Besides pentylenetetrazole which was administrated by subcutaneous injection, the compound of Example 29 and carbamazepine were consecutively administered for 8 days, respectively. The monkeys were respectively given a solvent prior to the first administration, and were injected subcutaneously with pentylenetetrazole immediately after the last administration. The administration interval between two tests was about 10 days. Pentylenetetrazine was administered once to induce epilepsy prior to the first administration of the compound of Example 29. The dosage was calculated according to the latest weight of the animal, and the date of first administration was designated as Day 1. Surgical procedure: the animals were fed adaptively for at least one week in feeding facilities, and then they were anesthetized during preoperative preparation according to the company standards. The main operation procedures were as follows: cutting the head skin, fully exposing the skull, stripping the periosteum, and cleaning the skull surface with a dry absorbent cotton; drilling 2 holes on the skull of the cynomolgus monkey with cranial drill, implanting a brain electrode, and fixing it with dental cement; then burying two myoelectric electrodes into the neck muscles of the cynomolgus monkey, and burying eye-electric electrodes into the bilateral eye muscles, fixing the implant body in the abdominal muscle layer. Postoperative care was performed according to the company standards. The raw data was collected by Ponemah of DSI system, and analyzed and revised by Neuronscore. The data was shown by mean±standard error (Mean±SEM), statistical analysis was performed by t-test and ANOVA. P<0.05 indicated a significant difference, P<0.01 indicated a very significant difference, P<0.001 indicated an extremely significant difference. The characteristics of electroencephalic response and electroencephalic energy for pentylenetetrazole-kindling epilepsy were observed and analyzed, and then a comparison was made between Example 29 and carbamazepine in terms of the latency for the onset of epilepsy seizure, and the times and lasting time of clonic convulsions and tonic convulsions in cynomolgus monkey pentylenetetrazole-kindling model, so as to compare the pharmacodynamic inhibitory effect of Example 29 and carbamazepine on cynomolgus monkey pentylenetetrazole-kindling model. After the cynomolgus monkeys were injected subcutaneously with 40 mg/kg pentylenetetole on the back and were induced epilepsy-like behaviors, the electroencephalic response, electromyogrphic response and locomotor activity were detected by DSI wireless remote sensing signal recording system. […] The behaviors were divided into paroxysmal activity, clonic convulsion and tonic convulsions according to the status of epilepsy. The changes of electroencephalic energy within 4-24 Hz were statistically analyzed when cynomolgus monkeys suffered epileptic seizure within 24 hours after injection of pentylenetetrazole.

[3] abbreviates: within 24 hours, versus Vehicle group.

Structures are written as SMILES.

Usually clearance stands for the rate of elimination divided by the concentration. The term half-life denotes the time in which the quantity being followed falls by half. As a reminder, the bioavailability is dose-corrected exposure relative to a reference, in per cent.

For `CC[C@@]12C=C(c3nc(C)no3)n3c4c(c5ccccc53)CCN(CCC1)[C@H]42` [Example 29, 5-((4^1S,13aS)-13a-ethyl-2,3,4^1,5,6,13a-hexahydro-1H-indolo[3,2,1-de]pyrido[3,2,1-ij][1,5]naphthyridin-12-yl)-3-methyl-1,2,4-oxadiazole], the IC50 at PDE1A was 1 to 20 µM. Further, the “area under the concentration-time curve (0-inf)” value in data set [1] (intravenous injection 1 mg/kg) is 4.04 µM·h. Moreover, the clearance in data set [1] (male, dog, plasma, intravenous injection 1 mg/kg) was 12 mL/min/kg. In addition, the half-life in data set [1] (male, dog, plasma, intravenous injection 1 mg/kg, read-out: Half-life period (converted)) is 9.42 h. This molecule gave a bioavailability in data set [1] (male, dog, plasma, oral administration 3 mg/kg) of 37.5%. For the same molecule, in data set [1] (oral administration 3 mg/kg), the Peak concentration turned out to be 1299 nM, the “Time to Peak” value is 1.0 h and the “area under the concentration-time curve (0-inf)” value was 4.545 µM·h. Moreover, in data set [1] (relative to vinpocetine), the “half-life longer than that of vinpocetine” value is 56% and the “plasma clearance lower than that of vinpocetine” value was “about 85%”. In data set [2] (8 days, versus Vehicle group), the “latency prolonged than the Vehicle group” value amounted to 39.24 min and the “latency, relative increase versus Vehicle group” value is 160%. Further, the “latency prolonged than the carbamazepine group” value in data set [2] (8 days, versus carbamazepine group) is reported as 18.9 min. The “latency for the onset of epilepsy seizure” value in data set [2] (continuous administration of 8 days, pentylenetetrazole 40 mg/kg s.c., Mean±SEM) was 64.10 ± 13.21 min. In data set [2] (pentylenetetrazole-kindled, Mean±SEM), the “lasting time of clonic convulsions and tonic convulsions” value amounted to 2.61 ± 0.99 min. In data set [2] (versus Vehicle group), the “lasting time of convulsions shortened compared with the Vehicle Group” value worked out at 9.07 min and the “lasting time of convulsions, relative reduction versus Vehicle Group” value turned out to be 78%. Further, the “lasting time of convulsions shortened compared with the carbamazepine group” value in data set [2] (versus carbamazepine group) was “about 2.1 min”. For the same molecule, the “times of clonic convulsion and tonic convulsion” value in data set [2] (within 24 hours after pentylenetetrazol, Mean±SEM) is given as 25.7±7.07. For the same molecule, in data set [2] (setting [3]), the “times of clonic and tonic convulsion reduced compared with the Vehicle Group” value is “about 82 times”; the “times of clonic and tonic convulsion, relative reduction versus Vehicle Group” value is reported as 76%. Further, the “times of clonic and tonic convulsion reduced compared with the carbamazepine group” value in data set [2] (within 24 hours, versus carbamazepine group) is reported as “about 14 times”.
